Publication PMC11892739, “Site-specific molecular glues for the 14-3-3/Tau pS214 protein–protein interaction via reversible covalent imine tethering” (RSC Medicinal Chemistry, 2025)

biological target: T1, 14-3-3ζ/Tau pS2 peptide interaction (Homo sapiens, UniProt P63104); test: Fluorescence anisotropy 14-3-3ζ titration in the presence of 250 μM compound and Tau pS2 peptide; format: binding; conditions: 250 μM compound; apparent KD compared to internal DMSO reference
T1 construct: made in house; host or cells: NiCo21 (DE3) E. coli
T1 sequence (P63104 1-245): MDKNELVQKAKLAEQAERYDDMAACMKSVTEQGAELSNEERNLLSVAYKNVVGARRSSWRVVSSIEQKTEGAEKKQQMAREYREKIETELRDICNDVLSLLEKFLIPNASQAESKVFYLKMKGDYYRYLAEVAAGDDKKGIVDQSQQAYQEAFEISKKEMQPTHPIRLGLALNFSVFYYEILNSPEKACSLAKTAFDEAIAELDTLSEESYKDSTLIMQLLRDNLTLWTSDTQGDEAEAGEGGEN
Protocol: On the other hand, the PPI stabilizing potency of series 1 compounds was highly dependent on the position and chemical property of the substituent. […] The compound screen for these compounds was further complemented by 14-3-3ζ titration assays in the presence of a constant concentration of compound (250 μM) and Tau pS2 peptide (10 nM) (Fig. 3c, ESI ^† Fig. S6).
This statement is strengthened by the diminished stabilizing activity when shifting the more polar chloro substituent from the para (14) to the ortho (5) to the meta position (8), respectively. […]
chromatography (HisTrap high performance cartridges, Cytiva). Typically two 5 mL columns were used for a 2 L culture in which the lysate was loaded on the column, washed with 10 CV wash buffer (50 mM Hepes, pH 8.0, 300 mM NaCl, 25 mM imidazole, 2 mM βME), and eluted with several fractions (2-4 CV) of elution buffer (50 mM Hepes, pH 8.0, 300 mM NaCl, 250 mM imidazole, 2 mM βME). Fractions containing the 14-3-3 protein were combined and dialyzed into 25 mM HEPES pH 8.0, 200 mM NaCl, 10 mM MgCl2, 2 mM βME, followed by dialysis into 25 mM HEPES, 100 mM NaCl, 10 mM MgCl2, 500 μM TCEP (adjusted to pH 8.0). Dialyzed protein was concentrated to ∼40 mg/mL, analyzed by Q -Tof LC/MS, and aliquots were flash -frozen for storage at −80 °C. For 14 -3-3σ∆c, 1 mg TEV per 100 mg purified protein was added to the dialysis to remove the purification tag. The cleaved sample was then again loaded on a 10 mL Ni-NTA column to separate the cleaved product from the expression tag and residual uncleaved protein. The flowthrough was loade d on a Superdex 75 pg 16/60 size exclusion column (GE Life Sciences) using 25 mM HEPES, 100 mM NaCl, 10 mM MgCl2, 500 μM TCEP (adjusted to pH = 8.0) as running buffer. Fractions containing the 14 -3-3 protein were pooled and concentrated to ∼60 mg/mL, analyzed Q -Tof LC/MS, and aliquots were flash -frozen for storage at −80°C.
Fluorescence Anisotropy – compound titration
Compound titration assays were performed by titrating compounds (in 1% DMSO, starting at 500 μM) in a 2-fold dilution series to preformed complex of fluorescein -labeled Tau pS2 (10 nM) and 14 -3-3ζ (100 nM) (which represents approximately 20% bound Tau pS2 peptide to 14 -3-3ζ to allow further complex formation by addition of fragments 1) in FA buffer (10 mM HEPES pH 7.4, 150 mM NaCl, 50 µM TCEP, 0.1% (v/v) Tween20, 0.1% (w/v) BSA). Dilution series were made in polystyrene low -volume 384 -well plates (Corning #4514, Black Round Bottom). Measurements were performed directly after plate preparation, using a Tecan SPARK plate reader at room temperature ( λex: 485±20 nm; λem: 535±25 nm; mirror: automatic; flashes: 30; settle time: 1 ms; gain: optimal; Z -position: calculated from well). Wells containing only fluorescein labelled peptide were used to set as G -factor calibrated from these wells. All data were analyzed using GraphPad Prism (10.0.1) and fitted with a four -parameter logistic model (4PL) to determine binding affinities (dissociation constant, KD). All data shown is background corrected for the signal without 14 -3-3ζ and the mean and standard deviation of technical duplicate is plotted, assay performed in a scientific duplicate for hit compounds.
Fluorescence Anisotropy – 14-3-3 titrations in the presence of compound To characterize the affinity of the Tau peptides for 14-3-3 in the presence of compound, 14-3-3ζ or γ was titrated in a 2-fold dilution series starting at 400 (for the 14-3-3ζ titrations to Tau pS2) or 800 (for the 14-3-3γ titrations to Tau pS214 or pS324) µM. 14-3-3 was added to 10 nM of fluorescein-labeled peptide (Tau pS2, Tau pS214 or Tau pS324) in the presence of 250 µM compound (1% DMSO). The assays were performed in a similar way as described above. Data shown is the average and standard deviation of a technical duplicate, top plateau corrected where needed, assay performed in a scientific duplicate.
Fluorescence Anisotropy – peptide screen […]

Row | Structure (SMILES) | SF250μM (stabilization factor)
1 | O=Cc1ccc(-n2ccnc2-c2ccccc2)cc1Br [Compound 1] | 23
2 | Cc1cccc(-c2nccn2-c2ccc(C=O)c(Br)c2)c1 [Compound 6] | 10
3 | Cc1ccc(-c2nccn2-c2ccc(C=O)c(Br)c2)cc1 [Compound 11] | 29
4 | O=Cc1ccc(-n2ccnc2-c2ccc(F)cc2)cc1Br [Compound 13] | 33
5 | O=Cc1ccc(-n2ccnc2-c2ccc(Cl)cc2)cc1Br [Compound 14] | 8.9
6 | O=Cc1ccc(-n2ccnc2-c2ccc(I)cc2)cc1Br [Compound 15] | 3.1
7 | CCc1ccc(-c2nccn2-c2ccc(C=O)c(Br)c2)cc1 [Compound 18] | 37
8 | O=Cc1ccc(-n2ccnc2-c2ccc(C(F)(F)F)cc2)cc1Br [Compound 20] | 13
9 | O=Cc1ccc(-n2ccnc2-c2ccc(OC(F)(F)F)cc2)cc1Br [Compound 21] | 11
10 | N#Cc1ccc(-c2nccn2-c2ccc(C=O)c(Br)c2)cc1 [Compound 22] | 34

same assay, conditions: screening hits

Row | Structure (SMILES) | stabilization of the 14-3-3ζ/Tau pS2 peptide complex [fold]
11 | O=Cc1ccc(-n2ccnc2-c2ccccc2)cc1Br [Compound 1] | 23
